Key:
Type in all cases: biochemical
[1] = target: ProfilerPro Kinase Selectivity Assay Kit kinases (Homo sapiens, UniProt P06239); conditions: LCK; 1 μM compound concentration
Procedure: (§1) Compounds were profiled using a LabChip® EZ Reader II platform and a ProfilerPro Kinase Selectivity Assay Kit (Caliper Lifesciences Inc., Hopkinton, Mass.). Compounds were tested at a concentration of 1 M in duplicate, with mean data reported as percent of control (POC).

[2] = target: ProfilerPro Kinase Selectivity Assay Kit kinases (Homo sapiens, UniProt P48730); conditions: CK1 delta; 1 μM compound concentration
Procedure: as §1

[3] = target: ProfilerPro Kinase Selectivity Assay Kit kinases (Homo sapiens, UniProt Q16539); conditions: p38 alpha; 1 μM compound concentration
Procedure: as §1

[4] = target: ProfilerPro Kinase Selectivity Assay Kit kinases (Homo sapiens, UniProt P23443); conditions: p70S6K; 1 μM compound concentration
Procedure: as §1

[5] = target: ProfilerPro Kinase Selectivity Assay Kit kinases (Homo sapiens, UniProt P17612); conditions: PKA alpha; 1 μM compound concentration
Procedure: as §1

[6] = target: ProfilerPro Kinase Selectivity Assay Kit kinases (Homo sapiens, UniProt O95819); conditions: HGK; 1 μM compound concentration
Chain of ProfilerPro Kinase Selectivity Assay Kit kinases (Homo sapiens, UniProt O95819) (O95819 2-1239 limits assumed): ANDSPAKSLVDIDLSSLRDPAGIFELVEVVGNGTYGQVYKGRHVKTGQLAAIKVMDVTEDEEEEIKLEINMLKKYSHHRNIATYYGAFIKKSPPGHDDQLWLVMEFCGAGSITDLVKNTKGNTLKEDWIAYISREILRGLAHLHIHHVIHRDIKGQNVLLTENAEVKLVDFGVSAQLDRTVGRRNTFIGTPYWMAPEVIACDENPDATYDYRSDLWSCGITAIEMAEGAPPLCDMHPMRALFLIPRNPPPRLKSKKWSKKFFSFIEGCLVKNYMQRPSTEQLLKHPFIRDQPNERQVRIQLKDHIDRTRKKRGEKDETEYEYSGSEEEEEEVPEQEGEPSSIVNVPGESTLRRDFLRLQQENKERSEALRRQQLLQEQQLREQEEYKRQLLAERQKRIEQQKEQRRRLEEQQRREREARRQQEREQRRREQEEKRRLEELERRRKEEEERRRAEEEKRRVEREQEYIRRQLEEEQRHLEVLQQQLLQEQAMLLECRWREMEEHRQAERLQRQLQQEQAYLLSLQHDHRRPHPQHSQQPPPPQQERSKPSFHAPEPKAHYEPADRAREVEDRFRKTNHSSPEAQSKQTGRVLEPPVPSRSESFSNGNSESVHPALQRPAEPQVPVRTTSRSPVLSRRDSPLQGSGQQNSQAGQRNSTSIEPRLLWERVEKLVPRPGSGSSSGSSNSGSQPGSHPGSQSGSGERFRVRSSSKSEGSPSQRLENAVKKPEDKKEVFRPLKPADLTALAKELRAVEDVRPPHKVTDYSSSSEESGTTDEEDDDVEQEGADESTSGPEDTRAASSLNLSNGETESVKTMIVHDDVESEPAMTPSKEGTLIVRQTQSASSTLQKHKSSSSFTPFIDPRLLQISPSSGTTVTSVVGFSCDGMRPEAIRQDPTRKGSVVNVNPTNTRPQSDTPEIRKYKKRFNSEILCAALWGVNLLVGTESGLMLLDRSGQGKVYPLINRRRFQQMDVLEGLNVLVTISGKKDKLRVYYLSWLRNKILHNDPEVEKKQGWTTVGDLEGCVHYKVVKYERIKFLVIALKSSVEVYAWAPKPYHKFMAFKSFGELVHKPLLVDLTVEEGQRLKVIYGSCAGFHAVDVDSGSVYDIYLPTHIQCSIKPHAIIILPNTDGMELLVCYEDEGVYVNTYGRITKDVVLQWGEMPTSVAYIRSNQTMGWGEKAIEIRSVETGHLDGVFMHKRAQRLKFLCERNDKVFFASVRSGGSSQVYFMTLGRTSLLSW
Procedure: as §1

[7] = target: ProfilerPro Kinase Selectivity Assay Kit kinases (Homo sapiens, UniProt O75582); conditions: MSK1; 1 μM compound concentration
Procedure: as §1

[8] = target: ProfilerPro Kinase Selectivity Assay Kit kinases (Homo sapiens, UniProt O14757); conditions: CHK1; 1 μM compound concentration
Procedure: as §1

[9] = target: ProfilerPro Kinase Selectivity Assay Kit kinases (Homo sapiens, UniProt P12931); conditions: SRC; 1 μM compound concentration
Chain of ProfilerPro Kinase Selectivity Assay Kit kinases (Homo sapiens, UniProt P12931) (P12931 2-536 limits assumed): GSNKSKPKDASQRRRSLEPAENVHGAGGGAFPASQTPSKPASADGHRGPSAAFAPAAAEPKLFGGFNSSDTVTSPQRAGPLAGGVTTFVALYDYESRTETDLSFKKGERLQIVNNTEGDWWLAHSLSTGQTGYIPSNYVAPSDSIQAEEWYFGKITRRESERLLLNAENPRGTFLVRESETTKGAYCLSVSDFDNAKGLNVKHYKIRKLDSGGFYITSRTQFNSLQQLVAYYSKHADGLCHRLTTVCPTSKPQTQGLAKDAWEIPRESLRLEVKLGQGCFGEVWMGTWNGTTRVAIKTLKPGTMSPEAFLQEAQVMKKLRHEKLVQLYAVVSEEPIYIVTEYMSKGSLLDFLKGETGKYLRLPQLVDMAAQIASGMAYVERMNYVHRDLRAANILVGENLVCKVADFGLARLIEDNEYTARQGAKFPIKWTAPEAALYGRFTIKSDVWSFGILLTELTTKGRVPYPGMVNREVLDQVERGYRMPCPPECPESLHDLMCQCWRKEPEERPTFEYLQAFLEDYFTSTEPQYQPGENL
Procedure: as §1

[10] = target: ProfilerPro Kinase Selectivity Assay Kit kinases (Homo sapiens, UniProt P08581); conditions: cMET; 1 μM compound concentration
Procedure: as §1

[11] = target: ProfilerPro Kinase Selectivity Assay Kit kinases (Homo sapiens, UniProt Q13976); conditions: PKGa2; 1 μM compound concentration
Procedure: as §1

[12] = target: ProfilerPro Kinase Selectivity Assay Kit kinases (Homo sapiens, UniProt Q8IW41); conditions: PRAK; 1 μM compound concentration
Procedure: as §1

[13] = target: ProfilerPro Kinase Selectivity Assay Kit kinases (Homo sapiens, UniProt P31749); conditions: AKT1; 1 μM compound concentration
Procedure: as §1

[14] = target: ProfilerPro Kinase Selectivity Assay Kit kinases (Homo sapiens, UniProt Q15418); conditions: RSK1; 1 μM compound concentration
Procedure: as §1

[15] = target: ProfilerPro Kinase Selectivity Assay Kit kinases (Homo sapiens, UniProt P11362); conditions: FGFR1; 1 μM compound concentration
Chain of ProfilerPro Kinase Selectivity Assay Kit kinases (Homo sapiens, UniProt P11362) (P11362 22-822 limits assumed): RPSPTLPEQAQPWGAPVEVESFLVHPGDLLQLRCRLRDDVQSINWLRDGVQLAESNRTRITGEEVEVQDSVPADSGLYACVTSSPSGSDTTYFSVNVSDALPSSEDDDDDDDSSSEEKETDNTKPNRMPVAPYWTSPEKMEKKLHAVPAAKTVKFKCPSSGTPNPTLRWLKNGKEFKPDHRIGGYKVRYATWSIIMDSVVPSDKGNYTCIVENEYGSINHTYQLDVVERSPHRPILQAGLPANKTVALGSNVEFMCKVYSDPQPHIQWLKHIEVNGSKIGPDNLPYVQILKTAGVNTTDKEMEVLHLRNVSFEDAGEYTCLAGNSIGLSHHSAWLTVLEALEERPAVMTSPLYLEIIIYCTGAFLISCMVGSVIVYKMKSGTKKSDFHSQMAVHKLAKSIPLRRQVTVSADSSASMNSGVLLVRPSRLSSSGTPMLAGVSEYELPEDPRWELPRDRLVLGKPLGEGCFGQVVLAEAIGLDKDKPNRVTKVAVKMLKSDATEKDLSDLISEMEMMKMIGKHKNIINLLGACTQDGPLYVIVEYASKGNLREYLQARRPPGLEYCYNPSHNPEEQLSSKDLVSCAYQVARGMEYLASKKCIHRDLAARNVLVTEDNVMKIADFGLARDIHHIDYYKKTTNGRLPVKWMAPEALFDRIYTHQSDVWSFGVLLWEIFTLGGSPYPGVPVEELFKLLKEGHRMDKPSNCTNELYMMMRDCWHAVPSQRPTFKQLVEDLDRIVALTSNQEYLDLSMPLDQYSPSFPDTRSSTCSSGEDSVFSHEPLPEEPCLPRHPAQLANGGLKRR
Procedure: as §1

[16] = target: ProfilerPro Kinase Selectivity Assay Kit kinases (Homo sapiens, UniProt Q16566); conditions: CAMK4; 1 μM compound concentration
Procedure: as §1

[17] = target: ProfilerPro Kinase Selectivity Assay Kit kinases (Homo sapiens, UniProt P28482); conditions: ERK2; 1 μM compound concentration
Chain of ProfilerPro Kinase Selectivity Assay Kit kinases (Homo sapiens, UniProt P28482) (P28482 2-360 limits assumed): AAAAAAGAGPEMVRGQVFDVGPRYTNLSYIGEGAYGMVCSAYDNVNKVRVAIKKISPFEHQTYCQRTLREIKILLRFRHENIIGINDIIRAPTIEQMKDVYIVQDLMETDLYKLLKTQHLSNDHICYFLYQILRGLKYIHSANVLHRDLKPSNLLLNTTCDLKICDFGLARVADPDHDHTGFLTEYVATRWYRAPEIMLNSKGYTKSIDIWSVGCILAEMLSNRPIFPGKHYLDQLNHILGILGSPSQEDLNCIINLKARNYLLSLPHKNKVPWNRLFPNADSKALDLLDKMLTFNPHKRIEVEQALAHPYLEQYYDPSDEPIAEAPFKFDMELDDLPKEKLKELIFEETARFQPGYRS
Procedure: as §1

[18] = target: ProfilerPro Kinase Selectivity Assay Kit kinases (Homo sapiens, UniProt P08069); conditions: IGF1R; 1 μM compound concentration
Procedure: as §1

[19] = target: ProfilerPro Kinase Selectivity Assay Kit kinases (Homo sapiens, UniProt P06213); conditions: INSR; 1 μM compound concentration
Procedure: as §1

[20] = target: ProfilerPro Kinase Selectivity Assay Kit kinases (Homo sapiens, UniProt P49841); conditions: GSK3 beta; 1 μM compound concentration
Procedure: as §1

[21] = target: ProfilerPro Kinase Selectivity Assay Kit kinases (Homo sapiens, UniProt P36888); conditions: FLT3; 1 μM compound concentration
Procedure: as §1

[22] = target: ProfilerPro Kinase Selectivity Assay Kit kinases (Homo sapiens, UniProt Q06187); conditions: BTK; 1 μM compound concentration
Chain of ProfilerPro Kinase Selectivity Assay Kit kinases (Homo sapiens, UniProt Q06187) (Q06187 2-659 limits assumed): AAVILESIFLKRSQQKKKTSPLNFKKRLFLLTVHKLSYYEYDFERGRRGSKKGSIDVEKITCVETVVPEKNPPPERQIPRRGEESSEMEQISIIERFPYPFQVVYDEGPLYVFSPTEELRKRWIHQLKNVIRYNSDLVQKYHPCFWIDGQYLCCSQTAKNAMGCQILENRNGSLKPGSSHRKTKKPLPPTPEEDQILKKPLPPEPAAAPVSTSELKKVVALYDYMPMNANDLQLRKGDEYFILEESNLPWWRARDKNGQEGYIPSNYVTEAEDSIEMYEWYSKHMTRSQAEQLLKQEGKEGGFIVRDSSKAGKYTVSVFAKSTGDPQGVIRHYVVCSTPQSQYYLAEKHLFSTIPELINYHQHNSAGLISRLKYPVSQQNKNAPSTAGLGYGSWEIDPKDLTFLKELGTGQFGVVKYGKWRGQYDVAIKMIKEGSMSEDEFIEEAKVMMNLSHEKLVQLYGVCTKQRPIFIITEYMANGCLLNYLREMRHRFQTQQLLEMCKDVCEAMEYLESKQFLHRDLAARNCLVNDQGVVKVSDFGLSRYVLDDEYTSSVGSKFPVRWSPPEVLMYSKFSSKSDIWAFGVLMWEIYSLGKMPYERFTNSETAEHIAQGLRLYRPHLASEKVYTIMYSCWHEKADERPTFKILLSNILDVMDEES
Procedure: as §1

[23] = target: ProfilerPro Kinase Selectivity Assay Kit kinases (Homo sapiens, UniProt O14965); conditions: AURORA A; 1 μM compound concentration
Procedure: as §1

[24] = target: ProfilerPro Kinase Selectivity Assay Kit kinases (Homo sapiens, UniProt P00519); conditions: ABL; 1 μM compound concentration
Procedure: as §1

[25] = target: ProfilerPro Kinase Selectivity Assay Kit kinases (Homo sapiens, UniProt P04049); conditions: cRAF; 1 μM compound concentration
Procedure: as §1

[26] = target: ProfilerPro Kinase Selectivity Assay Kit kinases (Homo sapiens, UniProt P24941); conditions: CDK2; 1 μM compound concentration
Procedure: as §1

[27] = target: ProfilerPro Kinase Selectivity Assay Kit kinases (Homo sapiens, UniProt P27361); conditions: ERK1; 1 μM compound concentration
Chain of ProfilerPro Kinase Selectivity Assay Kit kinases (Homo sapiens, UniProt P27361) (P27361 2-379 limits assumed): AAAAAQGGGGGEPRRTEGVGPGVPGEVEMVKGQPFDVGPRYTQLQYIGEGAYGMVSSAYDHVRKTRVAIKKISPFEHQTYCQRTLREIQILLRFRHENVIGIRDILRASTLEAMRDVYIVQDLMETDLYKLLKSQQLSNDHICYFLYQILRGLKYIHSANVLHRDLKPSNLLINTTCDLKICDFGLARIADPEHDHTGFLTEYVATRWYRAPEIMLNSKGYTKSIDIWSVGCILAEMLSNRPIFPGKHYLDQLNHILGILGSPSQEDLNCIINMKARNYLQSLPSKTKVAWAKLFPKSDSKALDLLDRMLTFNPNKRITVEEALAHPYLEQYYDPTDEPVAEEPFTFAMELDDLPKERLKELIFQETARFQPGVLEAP
Procedure: as §1

[28] = target: ProfilerPro Kinase Selectivity Assay Kit kinases (Homo sapiens, UniProt Q13627); conditions: DYRK1a; 1 μM compound concentration
Procedure: as §1

[29] = target: ProfilerPro Kinase Selectivity Assay Kit kinases (Homo sapiens, UniProt Q9P0L2); conditions: MARK1; 1 μM compound concentration
Procedure: as §1

[30] = target: ProfilerPro Kinase Selectivity Assay Kit kinases (Homo sapiens, UniProt P07948); conditions: LYN; 1 μM compound concentration
Chain of ProfilerPro Kinase Selectivity Assay Kit kinases (Homo sapiens, UniProt P07948) (P07948 2-512 limits assumed): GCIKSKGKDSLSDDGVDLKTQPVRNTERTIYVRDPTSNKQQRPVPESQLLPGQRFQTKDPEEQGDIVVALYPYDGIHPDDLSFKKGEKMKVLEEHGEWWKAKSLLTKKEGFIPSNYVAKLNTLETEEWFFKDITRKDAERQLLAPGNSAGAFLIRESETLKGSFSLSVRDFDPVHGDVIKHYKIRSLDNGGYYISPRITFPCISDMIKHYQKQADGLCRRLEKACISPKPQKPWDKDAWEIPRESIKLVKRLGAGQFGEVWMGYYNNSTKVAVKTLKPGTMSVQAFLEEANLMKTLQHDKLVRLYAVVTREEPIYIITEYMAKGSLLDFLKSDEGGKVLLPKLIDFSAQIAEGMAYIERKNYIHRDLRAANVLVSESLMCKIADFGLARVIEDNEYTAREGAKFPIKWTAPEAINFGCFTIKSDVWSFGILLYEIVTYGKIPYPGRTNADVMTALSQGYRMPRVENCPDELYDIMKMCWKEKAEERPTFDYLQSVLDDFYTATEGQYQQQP
Procedure: as §1

[31] = target: ProfilerPro Kinase Selectivity Assay Kit kinases (Homo sapiens, UniProt Q13188); conditions: MST2; 1 μM compound concentration
Procedure: as §1

Chain of ProfilerPro Kinase Selectivity Assay Kit kinases (Homo sapiens, UniProt P06239) (P06239 2-509 limits assumed): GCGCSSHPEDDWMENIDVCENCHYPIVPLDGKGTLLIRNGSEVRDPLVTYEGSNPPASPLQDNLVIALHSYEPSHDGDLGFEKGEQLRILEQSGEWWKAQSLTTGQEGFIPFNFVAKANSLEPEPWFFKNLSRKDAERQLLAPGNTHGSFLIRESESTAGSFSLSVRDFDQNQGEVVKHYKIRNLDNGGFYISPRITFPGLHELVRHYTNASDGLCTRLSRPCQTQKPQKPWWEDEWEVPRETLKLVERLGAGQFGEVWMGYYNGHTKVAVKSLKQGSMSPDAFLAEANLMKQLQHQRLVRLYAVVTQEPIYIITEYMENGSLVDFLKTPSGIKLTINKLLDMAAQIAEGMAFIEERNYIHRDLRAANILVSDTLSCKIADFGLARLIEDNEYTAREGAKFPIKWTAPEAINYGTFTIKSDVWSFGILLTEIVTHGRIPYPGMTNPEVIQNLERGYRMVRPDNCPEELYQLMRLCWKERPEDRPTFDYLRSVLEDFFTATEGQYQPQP

SMILES	POC (Percent of control) LCK [1] [POC]	POC (Percent of control) CK1 delta [2] [POC]	POC (Percent of control) p38 alpha [3] [POC]	POC (Percent of control) p70S6K [4] [POC]	POC (Percent of control) PKA alpha [5] [POC]	POC (Percent of control) HGK [6] [POC]	POC (Percent of control) MSK1 [7] [POC]	POC (Percent of control) CHK1 [8] [POC]	POC (Percent of control) SRC [9] [POC]	POC (Percent of control) cMET [10] [POC]	POC (Percent of control) PKGa2 [11] [POC]	POC (Percent of control) PRAK [12] [POC]	POC (Percent of control) AKT1 [13] [POC]	POC (Percent of control) RSK1 [14] [POC]	POC (Percent of control) FGFR1 [15] [POC]	POC (Percent of control) CAMK4 [16] [POC]	POC (Percent of control) ERK2 [17] [POC]	POC (Percent of control) IGF1R [18] [POC]	POC (Percent of control) INSR [19] [POC]	POC (Percent of control) GSK3 beta [20] [POC]	also measured
Cc1nc(N)nc(-c2cccnc2Nc2cccc3[nH]ccc23)n1 [Example 22, N-(3-(4-Amino-6-Methyl-1,3,5-Triazin-2-yl)Pyridin-2-yl)-1H-Indol-4-Amine]	97	91	101	74	97	97	103	103	101	106	93	106	102	100	96	95	103	97	96	94	POC (Percent of control) FLT3 [21]: 105 POC; POC (Percent of control) BTK [22]: 99 POC; POC (Percent of control) AURORA A [23]: 102 POC; POC (Percent of control) ABL [24]: 103 POC; POC (Percent of control) cRAF [25]: 98 POC; POC (Percent of control) CDK2 [26]: 107 POC; POC (Percent of control) ERK1 [27]: 99 POC; POC (Percent of control) DYRK1a [28]: 96 POC; POC (Percent of control) MARK1 [29]: 109 POC; POC (Percent of control) LYN [30]: 108 POC; POC (Percent of control) MST2 [31]: 98 POC
Cc1nc(N)nc(-c2cccnc2Nc2cccc(O)c2)n1 [Example 23, 3-(3-(4-Amino-6-Methyl-1,3,5-Triazin-2-yl)Pyridin-2-Ylamino)Phenol]	97	70	104	112	99	99	112	105	99	104	87	97	103	103	99	98	103	101	98	96	POC (Percent of control) FLT3 [21]: 106 POC; POC (Percent of control) BTK [22]: 100 POC; POC (Percent of control) AURORA A [23]: 112 POC; POC (Percent of control) ABL [24]: 97 POC; POC (Percent of control) cRAF [25]: 108 POC; POC (Percent of control) CDK2 [26]: 106 POC; POC (Percent of control) ERK1 [27]: 104 POC; POC (Percent of control) DYRK1a [28]: 93 POC; POC (Percent of control) MARK1 [29]: 97 POC; POC (Percent of control) LYN [30]: 101 POC; POC (Percent of control) MST2 [31]: 101 POC
Cc1nc(N)cc(-c2cccnc2Nc2cccc3[nH]ncc23)n1 [Example 27, N-(3-(6-Amino-2-Methylpyrimidin-4-yl)Pyridin-2-yl)-1H-Indazol-4-Amine]	101	43	104	91	84	91	94	103	89	95	90	98	98	89	94	56	97	41	71	80	POC (Percent of control) FLT3 [21]: 73 POC; POC (Percent of control) BTK [22]: 99 POC; POC (Percent of control) AURORA A [23]: 78 POC; POC (Percent of control) ABL [24]: 104 POC; POC (Percent of control) cRAF [25]: 95 POC; POC (Percent of control) CDK2 [26]: 84 POC; POC (Percent of control) ERK1 [27]: 100 POC; POC (Percent of control) DYRK1a [28]: 92 POC; POC (Percent of control) MARK1 [29]: 102 POC; POC (Percent of control) LYN [30]: 91 POC; POC (Percent of control) MST2 [31]: 84 POC

— patent US8772480B2, “Inhibitors of PI3 kinase and/or mTOR” (priority 2009, dated 2014)
